# PMC7604503, “Cyclic peptides can engage a single binding pocket through highly divergent modes” (Proceedings of the National Academy of Sciences of the …, 2020)
# Where a SMILES comes first, the peptide text is derived from it. Bridges are numbered along the chain shown (N, C = ends).
# Columns and labels:
# [1] = molecular target: T1, BRD4(1) (Homo sapiens, UniProt O60885); experiment: BROMOscan competition binding assay (BromoMAX, Eurofins DiscoverX); settings: for Percent Control BRD4(1): compound concentration 1000 nM, lower percentage control = stronger affinity
# T1 construct: BRD4(1); purchased Eurofins DiscoverX (BROMOscan, BromoMAX)
# [2] = molecular target: T2, BRDT(1) (Homo sapiens, UniProt Q58F21); experiment: as above; settings: for Percent Control BRDT(1): compound concentration 1000 nM, lower percentage control = stronger affinity
# T2 construct: BRDT(1); purchased Eurofins DiscoverX (BROMOscan, BromoMAX)
# [3] = molecular target: T3, CECR2 (Homo sapiens, UniProt Q9BXF3); experiment: as above; settings: for Percent Control CECR2: compound concentration 1000 nM, lower percentage control = stronger affinity
# T3 construct: purchased Eurofins DiscoverX (BROMOscan, BromoMAX)
# [4] = molecular target: T4, TAF1L(2) (Homo sapiens, UniProt Q8IZX4); experiment: as above; settings: for Percent Control TAF1L(2): compound concentration 1000 nM, lower percentage control = stronger affinity
# T4 construct: TAF1L(2); purchased Eurofins DiscoverX (BROMOscan, BromoMAX)
# T4 sequence (Q8IZX4 1519-1654 limits assumed): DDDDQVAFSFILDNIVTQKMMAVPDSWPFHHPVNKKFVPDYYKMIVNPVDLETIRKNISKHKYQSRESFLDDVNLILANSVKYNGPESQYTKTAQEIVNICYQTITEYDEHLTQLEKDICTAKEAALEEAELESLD
# [5] = molecular target: T5, BRD3-BD1 (Homo sapiens, UniProt Q15059); experiment: SPR binding of peptides to immobilised biotinylated BET bromodomain
# T5 construct: BRD3 (BD1: 25-147); Avi tag (biotinylated); made in house; host or cells: E. coli BL21(DE3)
# Description: (§1) We next assessed the ability of each of the three lead peptides to bind BRD3-BD1. […] To assess selectivity for other BET BDs, we used SPR to determine the binding affinity of each peptide toward the remaining BDs from BRD2, BRD3, and BRD4 (Fig. 1B). […]
# (§2) Crude peptides were purified by reverse-phase high-performance liquid chromatography using a Chromolith Prep column (Merck) on a Prominence LC-20AP system (Shimadzu) (Solvent A: 0.1% TFA in H2O, Solvent B: 0.1% TFA in acetonitrile) to >95% purity as determined by mass spectrometry (Fig. S17). Purified peptides were reconstituted in DMSO and concentrations determined from their absorbance at 280 nm in 5% DMSO using predicted extinction coefficients.
# (§3) Surface plasmon resonance (SPR)
# (§4) Measurements were conducted on a T200 or S200 (GE Healthcare) and data analysed using the Biacore Insight Evaluation Software. Experiments were performed at 4 °C in single cycle kinetics mode. Biotinylated BET bromodomains were immobilised on a CAP chip (GE Healthcare) with a […]
# (§5) pH 7.5 was used as the running buffer. […]
# [6] = molecular target: T6, BRD2-BD2 (Homo sapiens, UniProt P25440); experiment: as above
# T6 construct: human BRD2 (BD1: 65-194; BD2: 347-455); Avi tag (biotinylated); made in house; host or cells: E. coli BL21(DE3)
# Description: as §1, §2, §3, §4, §5
# [7] = molecular target: T7, BRD2-BD1 (Homo sapiens, UniProt P25440); experiment: as above
# T7 construct: human BRD2 (BD1: 65-194; BD2: 347-455); Avi tag (biotinylated); made in house; host or cells: E. coli BL21(DE3)
# Protocol: as §1
# Peptides were synthesised as C-terminal amides using standard fluorenylmethyloxycarbonyl (Fmoc)-strategy solid-phase chemistry using a Syro I automated synthesiser (Biotage) and NovaPEG Rink Amide resin (Novabiochem). Couplings were performed with HBTU/HOBt (1:1) and 6 equivalents of each amino acid. Double couplings were performed for arginine residues.
# Following the final amino acid coupling reaction, the Fmoc group was removed and resin incubated with N-(chloroacetoxy)succinimide (0.2 M in DMF, 1 h, RT). Resin was washed with DMF (5 times) and DCM (5 times) and dried in vacuo.
# Linear peptides were cleaved from the resin by incubation (3 h, RT) with a trifluoroacetic acid (TFA) cleavage cocktail (TFA/2,2’-(ethylenedioxy)diethanethiol/triisopropyl silane/H2O (92.5:2.5:2.5:2.5)) before filtration, concentration in vacuo and precipitation with ice-cold diethyl ether. Crude peptides were washed with diethyl ether (5 times), dried and resuspended in DMSO. The pH was raised to >8 using triethylamine to allow cyclisation. Following incubation (1 h, RT), peptides were re-acidified with TFA for purification.
# as §2, §3, §4, §5
# [8] = molecular target: T8, BRD3(1) (Homo sapiens, UniProt Q15059); experiment: BROMOscan competition binding assay (BromoMAX, Eurofins DiscoverX); settings: for Percent Control BRD3(1): compound concentration 1000 nM, lower percentage control = stronger affinity
# T8 construct: BRD3(1); purchased Eurofins DiscoverX (BROMOscan, BromoMAX)
# [9] = molecular target: T9, BRD2(1) (Homo sapiens, UniProt P25440); experiment: as above; settings: for Percent Control BRD2(1): compound concentration 1000 nM, lower percentage control = stronger affinity
# T9 construct: BRD2(1); purchased Eurofins DiscoverX (BROMOscan, BromoMAX)
# [10] = molecular target: T10, CREBBP (Homo sapiens, UniProt Q92793); experiment: as above; settings: for Percent Control CREBBP: compound concentration 1000 nM, lower percentage control = stronger affinity
# T10 construct: purchased Eurofins DiscoverX (BROMOscan, BromoMAX)
# [11] = molecular target: T11, EP300 (Homo sapiens, UniProt Q09472); experiment: as above; settings: for Percent Control EP300: compound concentration 1000 nM, lower percentage control = stronger affinity
# T11 construct: purchased Eurofins DiscoverX (BROMOscan, BromoMAX)
# [12] = tested on: TRIM33(PHD,Bromo.); experiment: as above; parameters: species or system human; settings: compound concentration 1000 nM; lower percentage control = stronger affinity
# [13] = molecular target: T12, BRD2(2) (Homo sapiens, UniProt P25440); experiment: as above; settings: for Percent Control BRD2(2): compound concentration 1000 nM, lower percentage control = stronger affinity
# T12 construct: BRD2(2); purchased Eurofins DiscoverX (BROMOscan, BromoMAX)
# [14] = molecular target: T13, BRD9 (Homo sapiens, UniProt Q9H8M2); experiment: as above; settings: for Percent Control BRD9: compound concentration 1000 nM, lower percentage control = stronger affinity
# T13 construct: purchased Eurofins DiscoverX (BROMOscan, BromoMAX)
# T13 sequence (Q9H8M2 1-597): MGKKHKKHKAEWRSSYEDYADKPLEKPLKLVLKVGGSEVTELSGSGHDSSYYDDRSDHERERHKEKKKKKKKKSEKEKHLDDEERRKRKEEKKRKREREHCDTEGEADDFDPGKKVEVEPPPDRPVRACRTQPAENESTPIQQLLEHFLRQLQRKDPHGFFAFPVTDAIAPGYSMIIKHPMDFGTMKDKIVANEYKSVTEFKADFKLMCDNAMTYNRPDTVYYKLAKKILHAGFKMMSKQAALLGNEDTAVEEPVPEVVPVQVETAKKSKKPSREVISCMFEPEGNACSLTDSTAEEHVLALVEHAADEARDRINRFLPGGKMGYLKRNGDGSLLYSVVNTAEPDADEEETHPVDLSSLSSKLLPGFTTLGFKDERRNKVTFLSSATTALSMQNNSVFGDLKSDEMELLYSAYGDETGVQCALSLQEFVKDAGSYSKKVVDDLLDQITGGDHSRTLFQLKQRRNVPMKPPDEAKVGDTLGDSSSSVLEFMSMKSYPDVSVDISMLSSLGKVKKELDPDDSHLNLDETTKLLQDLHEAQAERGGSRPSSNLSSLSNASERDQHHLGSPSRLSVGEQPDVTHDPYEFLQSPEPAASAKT
# [15] = molecular target: T14, WDR9(2) (Homo sapiens, UniProt Q9NSI6); experiment: as above; settings: for Percent Control WDR9(2): compound concentration 1000 nM, lower percentage control = stronger affinity
# T14 construct: WDR9(2); purchased Eurofins DiscoverX (BROMOscan, BromoMAX)
# [16] = 4 C, geometric mean and SD of two to five measurements
# [17] = gray boxed value: no reproducible signals observed at the concentrations used
# T11 sequence (Q09472 whole entry): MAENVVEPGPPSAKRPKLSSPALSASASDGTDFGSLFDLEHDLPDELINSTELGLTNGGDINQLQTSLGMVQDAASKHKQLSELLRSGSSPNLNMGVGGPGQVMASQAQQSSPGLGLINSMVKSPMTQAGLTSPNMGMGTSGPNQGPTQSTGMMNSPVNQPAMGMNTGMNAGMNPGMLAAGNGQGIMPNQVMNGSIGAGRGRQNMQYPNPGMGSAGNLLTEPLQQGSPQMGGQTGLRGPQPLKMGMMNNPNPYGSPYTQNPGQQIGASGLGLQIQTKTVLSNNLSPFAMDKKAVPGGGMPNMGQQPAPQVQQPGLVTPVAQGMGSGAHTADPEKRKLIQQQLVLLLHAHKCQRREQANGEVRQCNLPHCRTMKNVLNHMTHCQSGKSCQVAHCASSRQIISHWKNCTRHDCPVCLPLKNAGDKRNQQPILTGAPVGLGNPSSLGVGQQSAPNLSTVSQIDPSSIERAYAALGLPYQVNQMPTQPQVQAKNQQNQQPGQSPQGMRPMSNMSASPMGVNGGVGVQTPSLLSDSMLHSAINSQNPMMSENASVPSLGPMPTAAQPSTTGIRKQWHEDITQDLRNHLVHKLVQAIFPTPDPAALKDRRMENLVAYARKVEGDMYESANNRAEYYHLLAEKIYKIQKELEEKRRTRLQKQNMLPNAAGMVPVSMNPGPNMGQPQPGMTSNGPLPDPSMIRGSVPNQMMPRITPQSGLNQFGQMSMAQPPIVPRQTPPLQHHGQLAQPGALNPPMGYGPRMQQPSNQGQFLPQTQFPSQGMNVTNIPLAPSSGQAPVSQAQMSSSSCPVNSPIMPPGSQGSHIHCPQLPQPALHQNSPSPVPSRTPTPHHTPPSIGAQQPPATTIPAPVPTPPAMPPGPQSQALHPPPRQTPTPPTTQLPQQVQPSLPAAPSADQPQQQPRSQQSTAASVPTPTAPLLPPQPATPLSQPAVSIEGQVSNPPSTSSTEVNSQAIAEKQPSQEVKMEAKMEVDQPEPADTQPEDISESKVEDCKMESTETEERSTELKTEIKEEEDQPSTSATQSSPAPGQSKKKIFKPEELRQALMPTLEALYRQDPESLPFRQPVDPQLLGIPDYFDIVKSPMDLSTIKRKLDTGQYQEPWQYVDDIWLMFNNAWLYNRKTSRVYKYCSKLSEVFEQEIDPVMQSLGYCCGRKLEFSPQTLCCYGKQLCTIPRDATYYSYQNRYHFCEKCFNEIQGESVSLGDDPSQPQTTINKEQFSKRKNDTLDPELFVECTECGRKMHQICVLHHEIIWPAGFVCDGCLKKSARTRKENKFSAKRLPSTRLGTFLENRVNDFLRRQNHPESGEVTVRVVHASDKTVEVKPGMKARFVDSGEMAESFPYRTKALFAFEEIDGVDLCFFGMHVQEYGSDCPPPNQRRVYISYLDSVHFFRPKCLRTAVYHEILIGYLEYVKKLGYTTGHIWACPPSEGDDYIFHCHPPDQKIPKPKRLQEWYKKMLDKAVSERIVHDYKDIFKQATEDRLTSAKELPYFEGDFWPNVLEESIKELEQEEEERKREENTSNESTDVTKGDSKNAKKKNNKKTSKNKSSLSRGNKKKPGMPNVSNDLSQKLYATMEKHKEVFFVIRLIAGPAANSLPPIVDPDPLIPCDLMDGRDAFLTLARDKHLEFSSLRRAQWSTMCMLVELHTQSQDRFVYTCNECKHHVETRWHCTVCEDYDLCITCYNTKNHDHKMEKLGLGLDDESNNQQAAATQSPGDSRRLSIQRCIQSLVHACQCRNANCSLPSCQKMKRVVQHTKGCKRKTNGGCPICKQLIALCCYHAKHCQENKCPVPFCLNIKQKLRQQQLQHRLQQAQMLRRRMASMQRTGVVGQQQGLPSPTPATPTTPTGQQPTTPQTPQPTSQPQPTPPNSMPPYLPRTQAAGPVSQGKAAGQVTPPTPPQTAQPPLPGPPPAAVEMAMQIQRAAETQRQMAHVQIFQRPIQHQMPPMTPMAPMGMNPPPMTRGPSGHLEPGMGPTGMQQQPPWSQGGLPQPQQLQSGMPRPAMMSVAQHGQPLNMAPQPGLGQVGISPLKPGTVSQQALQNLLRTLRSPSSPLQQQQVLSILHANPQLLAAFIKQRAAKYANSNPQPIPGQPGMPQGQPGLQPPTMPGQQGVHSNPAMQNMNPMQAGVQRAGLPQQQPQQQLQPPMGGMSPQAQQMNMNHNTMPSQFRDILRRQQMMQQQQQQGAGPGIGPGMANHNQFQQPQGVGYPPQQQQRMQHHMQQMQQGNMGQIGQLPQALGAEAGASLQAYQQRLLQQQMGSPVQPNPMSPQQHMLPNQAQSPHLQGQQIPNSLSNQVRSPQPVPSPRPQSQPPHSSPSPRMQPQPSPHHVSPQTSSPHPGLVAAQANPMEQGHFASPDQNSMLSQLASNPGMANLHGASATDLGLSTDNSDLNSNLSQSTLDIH
# T9 sequence (P25440 71-194 limits assumed): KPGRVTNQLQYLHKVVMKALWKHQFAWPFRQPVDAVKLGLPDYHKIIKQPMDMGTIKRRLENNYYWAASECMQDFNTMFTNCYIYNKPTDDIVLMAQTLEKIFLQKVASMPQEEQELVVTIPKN
# T14 sequence (Q9NSI6 1307-1433 limits assumed): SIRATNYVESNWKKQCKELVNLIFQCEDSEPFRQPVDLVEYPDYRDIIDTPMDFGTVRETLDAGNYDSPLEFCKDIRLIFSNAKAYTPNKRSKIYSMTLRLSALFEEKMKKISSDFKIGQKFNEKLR
# T12 sequence (P25440 344-455 limits assumed): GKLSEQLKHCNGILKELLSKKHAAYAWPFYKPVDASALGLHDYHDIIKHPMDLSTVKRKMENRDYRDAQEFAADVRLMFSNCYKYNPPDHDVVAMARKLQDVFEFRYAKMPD
# T6 sequence (P25440 347-455): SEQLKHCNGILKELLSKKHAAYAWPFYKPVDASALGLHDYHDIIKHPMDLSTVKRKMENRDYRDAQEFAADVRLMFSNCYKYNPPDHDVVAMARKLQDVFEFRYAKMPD
# T3 sequence (Q9BXF3 whole entry): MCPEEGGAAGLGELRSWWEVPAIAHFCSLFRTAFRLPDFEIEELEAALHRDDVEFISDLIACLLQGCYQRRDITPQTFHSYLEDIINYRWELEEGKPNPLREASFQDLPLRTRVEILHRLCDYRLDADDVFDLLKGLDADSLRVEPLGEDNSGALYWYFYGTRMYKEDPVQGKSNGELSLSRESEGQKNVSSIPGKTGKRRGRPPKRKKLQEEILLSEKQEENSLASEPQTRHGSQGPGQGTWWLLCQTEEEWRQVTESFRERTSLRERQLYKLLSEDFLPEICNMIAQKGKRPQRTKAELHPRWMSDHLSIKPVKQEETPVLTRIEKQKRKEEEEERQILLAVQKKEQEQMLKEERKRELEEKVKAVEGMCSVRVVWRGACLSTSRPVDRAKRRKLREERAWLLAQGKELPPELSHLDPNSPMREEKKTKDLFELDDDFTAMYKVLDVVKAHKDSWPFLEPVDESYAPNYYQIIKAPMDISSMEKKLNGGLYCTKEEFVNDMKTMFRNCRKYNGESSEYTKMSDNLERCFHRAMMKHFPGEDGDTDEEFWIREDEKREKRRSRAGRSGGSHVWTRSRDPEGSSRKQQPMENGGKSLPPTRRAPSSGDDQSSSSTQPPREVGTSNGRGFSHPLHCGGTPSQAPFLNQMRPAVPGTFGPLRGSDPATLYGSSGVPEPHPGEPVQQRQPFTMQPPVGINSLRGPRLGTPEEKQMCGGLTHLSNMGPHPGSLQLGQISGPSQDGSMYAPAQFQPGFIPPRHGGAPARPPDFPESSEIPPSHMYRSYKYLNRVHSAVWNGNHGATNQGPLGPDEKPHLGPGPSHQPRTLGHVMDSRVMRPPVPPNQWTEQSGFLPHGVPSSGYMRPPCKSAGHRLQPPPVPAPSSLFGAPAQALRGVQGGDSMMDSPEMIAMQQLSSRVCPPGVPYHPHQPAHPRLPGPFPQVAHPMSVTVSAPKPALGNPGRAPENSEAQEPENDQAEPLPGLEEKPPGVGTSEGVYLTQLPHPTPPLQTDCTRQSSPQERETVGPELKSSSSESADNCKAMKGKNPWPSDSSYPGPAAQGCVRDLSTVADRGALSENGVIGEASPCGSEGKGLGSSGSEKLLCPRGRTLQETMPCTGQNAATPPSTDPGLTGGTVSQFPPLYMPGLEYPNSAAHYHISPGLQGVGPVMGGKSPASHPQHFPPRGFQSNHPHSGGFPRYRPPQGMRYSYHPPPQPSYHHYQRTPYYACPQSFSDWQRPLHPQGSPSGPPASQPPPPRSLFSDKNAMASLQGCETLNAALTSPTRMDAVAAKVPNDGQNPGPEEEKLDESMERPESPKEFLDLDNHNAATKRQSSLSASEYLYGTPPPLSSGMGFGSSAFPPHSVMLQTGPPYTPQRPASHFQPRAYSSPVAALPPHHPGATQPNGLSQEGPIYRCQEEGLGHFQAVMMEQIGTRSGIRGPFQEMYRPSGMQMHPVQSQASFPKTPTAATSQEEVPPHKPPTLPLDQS
# T8 sequence (Q15059 24-144 limits assumed): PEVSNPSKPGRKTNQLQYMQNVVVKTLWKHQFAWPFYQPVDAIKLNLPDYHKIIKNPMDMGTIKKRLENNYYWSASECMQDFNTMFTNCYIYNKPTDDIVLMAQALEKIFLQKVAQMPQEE
# T7 sequence (P25440 65-194): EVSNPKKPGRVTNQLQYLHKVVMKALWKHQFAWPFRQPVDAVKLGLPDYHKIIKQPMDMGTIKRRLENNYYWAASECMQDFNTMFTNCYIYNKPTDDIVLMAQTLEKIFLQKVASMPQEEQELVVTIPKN
# T5 sequence (Q15059 25-147): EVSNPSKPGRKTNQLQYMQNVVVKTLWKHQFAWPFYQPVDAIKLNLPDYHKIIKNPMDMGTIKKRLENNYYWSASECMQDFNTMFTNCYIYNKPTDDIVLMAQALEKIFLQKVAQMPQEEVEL
Compound,Percent Control BRD4(1) [1] [%],Percent Control BRDT(1) [2] [%],Percent Control CECR2 [3] [%],Percent Control TAF1L(2) [4] [%],"Kd [5, 16] [nM]","Kd [7, 16] [nM]",Percent Control BRD3(1) [8] [%],Percent Control BRD2(1) [9] [%],Percent Control CREBBP [10] [%],Percent Control EP300 [11] [%],"Percent Control TRIM33(PHD,Bromo.) [12] [%]",Percent Control BRD2(2) [13] [%],Percent Control BRD9 [14] [%],Percent Control WDR9(2) [15] [%],"Kd [6, 16] [nM]",further results
CC[C@H](C)[C@@H]1NC(=O)[C@H]([C@@H](C)O)NC(=O)[C@H](CCCCN)NC(=O)[C@H](Cc2c[nH]c3ccccc23)NC(=O)CSC[C@@H](C(N)=O)NC(=O)[C@H](CCC(N)=O)NC(=O)[C@H](CCCCNC(C)=O)NC(=O)[C@H]([C@@H](C)O)NC(=O)[C@H](CCCNC(=N)N)NC(=O)[C@H](Cc2c[nH]c3ccccc23)NC(=O)[C@H]([C@@H](C)O)NC(=O)[C@H](CCCCNC(C)=O)NC(=O)CNC(=O)[C@H](CCCCNC(C)=O)NC1=O [3.1B] ({CH2CO}-WKTIK(Ac)GK(Ac)TWRTK(Ac)QC-NH2; thioether N-14),0.2,0,100,100,0.49 ± 0.63,0.27 ± 0.16,1.4,21,100,100,100,100,100,96,–,"Kd [6, 17]: > 10000 nM"
CC[C@H](C)[C@@H]1NC(=O)[C@H](Cc2c[nH]c3ccccc23)NC(=O)[C@H](Cc2c[nH]c3ccccc23)NC(=O)CSC[C@@H](C(N)=O)NC(=O)CNC(=O)[C@H](CCCCNC(C)=O)NC(=O)[C@H](CCCCN)NC(=O)[C@H](C(C)C)NC(=O)[C@H](CCCCNC(C)=O)NC(=O)[C@@H]2CCCN2C(=O)[C@H]([C@@H](C)CC)NC1=O [3.1C] ({CH2CO}-WWIIPK(Ac)VKK(Ac)GC-NH2; thioether N-11),0,0,99,100,0.08 ± 0.049,0.19 ± 0.04,0,2.4,100,100,100,0.35,95,87,9.2 ± 25,–
CC[C@H](C)[C@H](NC(=O)[C@H](CCCNC(=N)N)NC(=O)[C@H](CCCCNC(C)=O)NC(=O)[C@H](CCCNC(=N)N)NC(=O)[C@H](CC(C)C)NC(=O)[C@@H]1CSCC(=O)N[C@@H](Cc2c[nH]c3ccccc23)C(=O)N[C@@H](CCCCNC(C)=O)C(=O)NCC(=O)N[C@@H](Cc2ccc(O)cc2)C(=O)N[C@@H](CC(C)C)C(=O)N1)C(=O)N[C@@H](CCC(N)=O)C(=O)N[C@@H](CCCNC(=N)N)C(=O)N[C@H](C(=O)N[C@@H](Cc1ccc(O)cc1)C(=O)N[C@@H](CC(N)=O)C(N)=O)[C@@H](C)O [4.2C] ({CH2CO}-WK(Ac)GYLCLRK(Ac)RIQRTYN-NH2; thioether N-6),–,–,–,–,–,–,–,–,–,–,100,–,–,–,22 ± 26,"remaining binding at 1 µM ([1]; read-out: Percent Control BRD4(1)): 96%; remaining binding at 1 µM ([2]; read-out: Percent Control BRDT(1)): 85%; percent of control binding at 1 µM [3]: 99%; remaining binding at 1 µM ([4]; read-out: Percent Control TAF1L(2)): 100%; Kd [5, 17]: > 10000 nM; Kd [7, 17]: > 10000 nM; remaining binding at 1 µM ([8]; read-out: Percent Control BRD3(1)): 100%; percent of control binding at 1 µM [9]: 85%; remaining binding at 1 µM ([10]; read-out: Percent Control CREBBP): 100%; remaining binding at 1 µM ([11]; read-out: Percent Control EP300): 100%; remaining binding at 1 µM ([13]; read-out: Percent Control BRD2(2)): 17%; percent of control binding at 1 µM [14]: 89%; percent of control binding at 1 µM [15]: 85%"
